Test results taken from patent publication US20230226259A1, “NANOFIBER CARDIAC PATCH AND METHODS OF USE THEREOF” (Ohio State Innovation Foundation, priority 2020, published 2023).

Legend:
COVID-19 patients = conditions: cited from earlier work
[1] = tested on: hiPSC-CMs cultured on aligned coaxial patches; test: Particle image velocimetry (PIV) optical contractility of aligned coaxial cardiac patch; assay type: cell-based, human; conditions: 100 nM, patches at two weeks of culture
Experimental: Cross-correlation (“PIV”) analysis of images. Cell contractility kinetics were assessed using the optical flow/PIV method. Briefly, a motion pattern (velocity field) captured on a pair of images was calculated by dividing the first image into overlapping tiles, each 64 pixels wide. The second image was then scanned pixel-by-pixel, by shifting an equally sized (64×64 pixels) window. The most similar (by Euclidean distance) tile on the second image was then assumed to be the location where the pattern in the first image moved. The resulting displacement vectors characterizing each image tile were then interpolated and denoised by a thin-plate spline fit, yielding a coarse displacement field. The coarse estimate was used to construct a second, higher resolution displacement field. […] Fourier spectra were calculated from D(t) beat patterns using the discrete Fourier transform algorithm. Power densities were calculated as the magnitudes of the squared Fourier spectra, and indicate periodicity within the signal in the form of peaks at the corresponding frequencies. When the analyzed signal is not a pure sine wave, harmonics are expected to appear at integer multiples of the fundamental frequency f(2f, 3f, etc). […]

hiPSC-CMs = test: Multi-electrode array (MEA) field potentials of hiPSC-CMs cultured in 2-D or on aligned coaxial patches (3-D) after cardiac drugs; assay type: cell-based, human; conditions: for beating frequency (beats per minute): change after treatment
fertilized chicken eggs = test: In ovo CAM assay; assay type: in vivo; conditions: in Geltrex carrier, 5 days
Experimental: The angiogenic potential of bFGF loaded PDA-NPs and DPDA-NPs was evaluated by using fertilized chicken eggs. The eggs were incubated in a hatching incubator for 5 days, following the incubation the viable eggs were selected and grouped as follows (bFGF+Geltrex, bFGF-PDA-NPs+Geltrex, bFGF-DPDA-NPs+Geltrex and only Geltrex). A window was made on the eggshell and a sterilized nylon mesh was placed inside the egg. The test samples were loaded on the nylon mesh and the window was covered by placing a 35 mm plate and secured by using tape. The eggs were further incubated for 5 days, following which it was carefully dissected to retrieve the nylon mesh and imaged using a stereomicroscope (Leica).

Molecule: CCN(CCO)CCCC(C)Nc1ccnc2cc(Cl)ccc12 (stereo not shown) [HCQ, hydroxychloroquine]
- cell death (hiCMs): increased
- cell viability (hiCMs): decreased
- electrophysiological function (MEA and patch clamp) (hiCMs): considerable changes
- QT interval (COVID-19 patients; COVID-19 / SARS-CoV-2 patients): QT prolongation
- association between treatment and consequent intubation or death (COVID-19 patients; New York study (Geleris et al)): no significant association
- recovery of patients (COVID-19 patients; randomized clinical trial, administration for 5 days): improved recovery

Molecule: CC(C)NCC(O)c1ccc(O)c(O)c1 (stereo not shown) [ISO, Isoproterenol]
- spontaneous beat amplitude (beat patterns) [1]: increase
- average frequency of spontaneous beating ([1]; mean +- SEM, untreated 0.136 Hz): 1.497+−0.0394 Hz
- beat period (hiPSC-CMs; 2-D culture, 10 nM ISO): 0.67 ± 0.04 s
- beat period (hiPSC-CMs; 2-D culture, 100 nM ISO): 0.66 ± 0.03 s
- beat period (hiPSC-CMs; 3-D culture (aligned coaxial patch), 10 nM ISO): 0.8 ± 0.15 s
- beat period (hiPSC-CMs; 3-D culture (aligned coaxial patch), 100 nM ISO): 0.66 ± 0.1 s
- Fridericia-corrected field potential duration (FPDc), change vs baseline (hiPSC-CMs; both 2-D and 3-D cultures): dose-dependent shortening of the QT interval
- beat period, change vs baseline (hiPSC-CMs; both 2-D and 3-D cultures): significant dose-dependent decrease
- beating frequency (beats per minute) (hiPSC-CMs; both 2-D and 3-D cultures): increase

Molecule: COc1ccc(CCN(C)CCCC(C#N)(c2ccc(OC)c(OC)c2)C(C)C)cc1OC (stereo not shown) [Verapamil]
- FPDc, change with dose (hiPSC-CMs; 3-D culture only, 0.1 μM and 0.3 μM): dose-dependent decrease
- beat period, change vs baseline (hiPSC-CMs; both 2-D and 3-D cultures): significant fold decrease
- beating frequency (beats per minute) (hiPSC-CMs; both 2-D and 3-D cultures): increase

Molecule: bFGF: basic fibroblast growth factor
- new blood vessel formation on nylon mesh (fertilized chicken eggs): remarkable angiogenesis
